System: 253994-281-T-J1-PDC KRAS-mutant spheroids with HUVEC/MSC, viability
Test: Anticancer human tumor 253994-281-T-J1-PDC patient-derived colorectal carcinoma cell line growth inhibition [KRAS2]
Details: for IC50: curve of first compound; for viability, T/C: stronger effect = lower value
Method in brief: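 KRAS-mutant tumor cells were grown as spheroids with HUVEC endothelial cells and human MSCs as stroma. Targeted agents were tested alone and with KRAS pathway inhibitors. Doses started at or near clinical Cmax, or 10 microM, descending half-log.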

[1] = second compound 0.1 µM, first compound 0.000316 µM
[2] = second compound 0.1 µM, first compound 0.001 µM
[3] = second compound 0.1 µM, first compound 0.00316 µM
[4] = second compound 0.1 µM, first compound 0.01 µM
[5] = second compound 0.1 µM, first compound 0.0316 µM
[6] = second compound 0.316 µM, first compound 0.000316 µM
[7] = second compound 0.316 µM, first compound 0.001 µM
[8] = second compound 0.316 µM, first compound 0.00316 µM
[9] = second compound 0.316 µM, first compound 0.01 µM
[10] = second compound 0.316 µM, first compound 0.0316 µM
[11] = second compound 1 µM, first compound 0.000316 µM
[12] = second compound 1 µM, first compound 0.001 µM
[13] = second compound 1 µM, first compound 0.00316 µM
[14] = second compound 1 µM, first compound 0.01 µM
[15] = second compound 1 µM, first compound 0.0316 µM
[16] = second compound 3.16 µM, first compound 0.000316 µM
[17] = second compound 3.16 µM, first compound 0.001 µM
[18] = second compound 3.16 µM, first compound 0.00316 µM
[19] = second compound 3.16 µM, first compound 0.01 µM
[20] = second compound 3.16 µM, first compound 0.0316 µM
[21] = second compound 0.0316 µM, first compound 0.0316 µM
[22] = second compound 0.0316 µM, first compound 0.1 µM
[23] = second compound 0.1 µM, first compound 0.1 µM
[24] = second compound 0.316 µM, first compound 0.1 µM
[25] = second compound 1 µM, first compound 0.1 µM
[26] = second compound 3.16 µM, first compound 0.1 µM
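Also: spheroids exposed to agents for seven days before readout.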
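For viability, T/C in this document: percent of DMSO vehicle control viability.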

## CC(=O)Nc1cccc(-n2c(=O)n(C3CC3)c(=O)c3c(Nc4ccc(I)cc4F)n(C)c(=O)c(C)c32)c1 + CC1OCC2(CCN(c3cnc(Sc4ccnc(N)c4Cl)c(N)n3)CC2)C1N
Second compound 0.1 µM
  IC50: 0.565 nM
Second compound 0.316 µM
  IC50: 0.205 nM
Second compound 1 µM
  IC50: < 0.1 nM
Second compound 3.16 µM
  IC50: < 0.1 nM
Second compound 10 µM
  IC50: < 0.1 nM
Second compound 0.1 µM, first compound 0.0001 µM
  viability, T/C: 64.3%
[1]
  viability, T/C: 68.6%
[2]
  viability, T/C: 34.1%
[3]
  viability, T/C: 17.9%
[4]
  viability, T/C: 10.1%
[5]
  viability, T/C: 5.82%
Second compound 0.316 µM, first compound 0.0001 µM
  viability, T/C: 63.1%
[6]
  viability, T/C: 42.8%
[7]
  viability, T/C: 22.3%
[8]
  viability, T/C: 14.1%
[9]
  viability, T/C: 8.18%
[10]
  viability, T/C: 4.42%
Second compound 1 µM, first compound 0.0001 µM
  viability, T/C: 40.5%
[11]
  viability, T/C: 27.7%
[12]
  viability, T/C: 14.1%
[13]
  viability, T/C: 9.38%
[14]
  viability, T/C: 7.13%
[15]
  viability, T/C: 4.04%
Second compound 3.16 µM, first compound 0.0001 µM
  viability, T/C: 29.3%
[16]
  viability, T/C: 23.6%
[17]
  viability, T/C: 10.8%
[18]
  viability, T/C: 5.83%
[19]
  viability, T/C: 6.59%
[20]
  viability, T/C: 3.09%
Second compound 10 µM, first compound 0.0001 µM
  viability, T/C: 16.5%
Second compound 10 µM, first compound 0.000316 µM
  viability, T/C: 7.93%
Second compound 10 µM, first compound 0.001 µM
  viability, T/C: 5.92%
Second compound 10 µM, first compound 0.00316 µM
  viability, T/C: 4.52%
Second compound 10 µM, first compound 0.01 µM
  viability, T/C: 3.06%
Second compound 10 µM, first compound 0.0316 µM
  viability, T/C: 2.51%

## CC(C)NCC(C(=O)N1CCN(c2ncnc3c2C(C)CC3O)CC1)c1ccc(Cl)cc1 (stereo not given) + C=CC(=O)N1CCN(c2nc(OCC3CCCN3C)nc3c2CCN(c2cccc4cccc(C)c24)C3)CC1CC#N
Second compound 0.0316 µM
  IC50: > 10000 nM
Second compound 0.1 µM
  IC50: > 10000 nM
Second compound 0.316 µM
  IC50: > 10000 nM
Second compound 1 µM
  IC50: > 10000 nM
Second compound 3.16 µM
  IC50: < 31.6 nM
[21]
  viability, T/C: 104%
[22]
  viability, T/C: 105%
Second compound 0.0316 µM, first compound 0.316 µM
  viability, T/C: 99.7%
Second compound 0.0316 µM, first compound 1 µM
  viability, T/C: 94.7%
Second compound 0.0316 µM, first compound 3.16 µM
  viability, T/C: 96.3%
Second compound 0.0316 µM, first compound 10 µM
  viability, T/C: 92.7%
[5]
  viability, T/C: 101%
[23]
  viability, T/C: 98.8%
Second compound 0.1 µM, first compound 0.316 µM
  viability, T/C: 105%
Second compound 0.1 µM, first compound 1 µM
  viability, T/C: 91%
Second compound 0.1 µM, first compound 3.16 µM
  viability, T/C: 94.5%
Second compound 0.1 µM, first compound 10 µM
  viability, T/C: 100%
[10]
  viability, T/C: 84%
[24]
  viability, T/C: 94.2%
Second compound 0.316 µM, first compound 0.316 µM
  viability, T/C: 92.8%
Second compound 0.316 µM, first compound 1 µM
  viability, T/C: 84.9%
Second compound 0.316 µM, first compound 3.16 µM
  viability, T/C: 77.8%
Second compound 0.316 µM, first compound 10 µM
  viability, T/C: 85.2%
[15]
  viability, T/C: 85.6%
[25]
  viability, T/C: 101%
Second compound 1 µM, first compound 0.316 µM
  viability, T/C: 95.1%
Second compound 1 µM, first compound 1 µM
  viability, T/C: 90.3%
Second compound 1 µM, first compound 3.16 µM
  viability, T/C: 93.6%
Second compound 1 µM, first compound 10 µM
  viability, T/C: 88.7%
[20]
  viability, T/C: 2.67%
[26]
  viability, T/C: 11.2%
Second compound 3.16 µM, first compound 0.316 µM
  viability, T/C: 14.7%
Second compound 3.16 µM, first compound 1 µM
  viability, T/C: 12.3%
Second compound 3.16 µM, first compound 3.16 µM
  viability, T/C: 4.04%
Second compound 3.16 µM, first compound 10 µM
  viability, T/C: 0.49%

## Cn1ncnc1[C@H]1c2n[nH]c(=O)c3cc(F)cc(c23)N[C@@H]1c1ccc(F)cc1 + C=CC(=O)N1CCN(c2nc(OCC3CCCN3C)nc3c2CCN(c2cccc4cccc(C)c24)C3)CC1CC#N
Second compound 0.0316 µM
  IC50: > 100 nM
Second compound 0.1 µM
  IC50: > 100 nM
Second compound 0.316 µM
  IC50: > 100 nM
Second compound 1 µM
  IC50: > 100 nM
Second compound 3.16 µM
  IC50: 0.431 nM
Second compound 0.0316 µM, first compound 0.000316 µM
  viability, T/C: 93.7%
Second compound 0.0316 µM, first compound 0.001 µM
  viability, T/C: 93.7%
Second compound 0.0316 µM, first compound 0.00316 µM
  viability, T/C: 96.8%
Second compound 0.0316 µM, first compound 0.01 µM
  viability, T/C: 105%
[21]
  viability, T/C: 100%
[22]
  viability, T/C: 92.8%
[1]
  viability, T/C: 94.8%
[2]
  viability, T/C: 93.1%
[3]
  viability, T/C: 96.7%
[4]
  viability, T/C: 86.8%
[5]
  viability, T/C: 97.2%
[23]
  viability, T/C: 92.8%
[6]
  viability, T/C: 95.8%
[7]
  viability, T/C: 105%
[8]
  viability, T/C: 98.4%
[9]
  viability, T/C: 88.4%
[10]
  viability, T/C: 96.2%
[24]
  viability, T/C: 84.1%
[11]
  viability, T/C: 96.8%
[12]
  viability, T/C: 86.7%
[13]
  viability, T/C: 91.8%
[14]
  viability, T/C: 88.9%
[15]
  viability, T/C: 93.4%
[25]
  viability, T/C: 85.7%
[16]
  viability, T/C: 53.9%
[17]
  viability, T/C: 39.2%
[18]
  viability, T/C: 28.2%
[19]
  viability, T/C: 13.3%
[20]
  viability, T/C: 21%
[26]
  viability, T/C: 17.7%
